The source of these data is patent US10501421B1, “Substituted benzimidazoles as modulators of Ras signaling” (VANDERBILT UNIVERSITY, priority 2017, dated 2019).

The target of test [1] is Ras GEF SOS (Son of Sevenless) (Homo sapiens, UniProt Q07889). As to the kind of experiment: SOS-mediated nucleotide exchange on Ras (BODIPY-GDP fluorescence). The class given is biochemical. To be noted: SOS-mediated exchange of BODIPY-GDP for GTP on Ras. Put shortly: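 Ras loaded with BODIPY-GDP was mixed in buffer with test compound, then GTP and SOS. Fluorescence change from labeled GDP/GTP exchange was followed over time, and rates came from single-exponential fits. EC50 came from a four-parameter fit of mean rate against compound concentration.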

For test [2], the target named is T1, Son of Sevenless (SOS) (Homo sapiens, UniProt Q07889).
T1 sequence (Q07889 564-1049 limits assumed): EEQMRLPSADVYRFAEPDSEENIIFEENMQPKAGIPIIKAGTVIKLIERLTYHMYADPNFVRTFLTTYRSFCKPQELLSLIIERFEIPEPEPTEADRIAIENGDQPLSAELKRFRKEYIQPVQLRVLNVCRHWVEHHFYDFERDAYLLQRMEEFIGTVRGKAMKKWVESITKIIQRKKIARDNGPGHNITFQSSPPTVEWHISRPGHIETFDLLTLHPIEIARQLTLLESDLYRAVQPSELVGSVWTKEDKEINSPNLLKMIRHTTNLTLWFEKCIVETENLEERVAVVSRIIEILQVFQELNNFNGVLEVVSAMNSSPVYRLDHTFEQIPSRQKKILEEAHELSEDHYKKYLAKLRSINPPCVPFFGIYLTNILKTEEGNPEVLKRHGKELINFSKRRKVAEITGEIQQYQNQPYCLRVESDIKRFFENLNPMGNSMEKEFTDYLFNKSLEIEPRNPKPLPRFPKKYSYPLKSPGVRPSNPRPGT
As to the kind of experiment: Binding to SOS, fluorescence polarization anisotropy (FPA) probe displacement. As to conditions: displacement of FITC-conjugated probe (Example 285), affinity calculated from IC50. Put shortly: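 A FITC-conjugated probe compound was incubated with SOS in buffer, and its displacement was tracked as a change in fluorescence anisotropy across a test-compound dose range. IC50 came from a four-parameter variable-slope fit, and binding affinity was calculated from it.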

SMILES strings stand for the structures. Where a name gives a salt, the structure may show the parent alone. Bounds are passed on as bounds.

Sequence of Ras GEF SOS (Son of Sevenless) (P01112 1-166 partner limits assumed, one chain of several): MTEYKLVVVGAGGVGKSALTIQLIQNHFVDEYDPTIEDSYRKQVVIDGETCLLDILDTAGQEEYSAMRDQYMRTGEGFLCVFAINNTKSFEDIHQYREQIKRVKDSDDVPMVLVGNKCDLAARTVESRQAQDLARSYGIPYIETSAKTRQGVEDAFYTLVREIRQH

For the molecule `Cc1cc(OCCN2CCCC2)c2nc(N3CCNCC3)n(Cc3cc(C)c(F)c(C)c3)c2c1` [Example 316, 1-(4-fluoro-3,5-dimethylbenzyl)-6-methyl-2-(piperazin-1-yl)-4-(2-(pyrrolidin-1-yl)ethoxy)-1H-benzo[d]imidazole], the EC50 in test [1] is less than 1 µM. Besides, the Ki in test [2] is 1 to 5 µM.

With `Cc1cc(N2CCN(C)CC2)c2nc(N3CCNCC3)n(Cc3cc(C)c(F)c(C)c3)c2c1` [Example 322, 1-(4-fluoro-3,5-dimethylbenzyl)-6-methyl-4-(4-methylpiperazin-1-yl)-2-(piperazin-1-yl)-1H-benzo[d]imidazole], in test [1], the EC50 is less than 1 µM. For the same molecule, in test [2], the Ki is less than 0.5 µM.

In turn, `Cc1cc2c(nc(N3CCNCC3)n2Cc2ccc(Cl)cc2)c(-c2ccccc2)c1C` [Example 105, 1-(4-chlorobenzyl)-5,6-dimethyl-4-phenyl-2-(piperazin-1-yl)-1H-benzo[d]imidazole trifluoroacetate] yielded an EC50 in test [1] of 1 to 5 µM. For the same molecule, the Ki in test [2] was more than 5 µM.

In turn, `CCNCc1c(C)c(C)cc2c1nc(NCCN)n2Cc1ccc(F)c(Cl)c1` [Example 147, N^1-(1-(3-chloro-4-fluorobenzyl)-4-((ethylamino)methyl)-5,6-dimethyl-1H-benzo[d]imidazol-2-yl)ethane-1,2-diamine trifluoroacetate] returned an EC50 in test [1] of less than 1 µM. For the same molecule, the Ki in test [2] is 1 to 5 µM.

For `Cc1cc2nc(NCCN3CCOCC3)n(Cc3cc(F)cc(F)c3)c2cc1C` [Example 31, 1-(3,5-difluorobenzyl)-5,6-dimethyl-N-(2-morpholinoethyl)-1H-benzo[d]imidazol-2-amine trifluoroacetate], the EC50 in test [1] is 5 to 30 µM. The inhibitory constant (Ki) in test [2] is more than 5 µM.

In test [1], `Cc1cc2c(cc1Br)nc(N1CCNCC1)n2Cc1ccc(F)c(Cl)c1` [Example 70, 5-bromo-1-(3-chloro-4-fluorobenzyl)-6-methyl-2-(piperazin-1-yl)-1H-benzo[d]imidazole trifluoroacetate] registered an EC50 of 1 to 5 µM. Besides, the Ki in test [2] was 1 to 5 µM.

`COc1ccccc1-c1nc(C)cc2c1nc(N1CCNCC1)n2Cc1ccc(F)c(C)c1` [Example 228, 1-(4-fluoro-3-methylbenzyl)-4-(2-methoxyphenyl)-6-methyl-2-(piperazin-1-yl)-1H-imidazo[4,5-c]pyridine] showed an EC50 in test [1] of 5 to 30 µM. Moreover, in test [2], the Ki is more than 5 µM.

With `Cc1cc2c(nc(N3CCNCC3)n2Cc2ccc(F)c(C)c2)c(CN2CCCCC2)n1` [Example 235, 1-(4-fluoro-3-methylbenzyl)-6-methyl-2-(piperazin-1-yl)-4-(piperidin-1-ylmethyl)-1H-imidazo[4,5-c]pyridine], in test [1], the EC50 fell in the range of 30 to 100 µM. In addition, the Ki in test [2] is more than 5 µM.

With `Cc1cc2nc(NCCN)n(Cc3ccc(F)c(Cl)c3)c2cc1Cl` [Example 69, N^1-(6-chloro-1-(3-chloro-4-fluorobenzyl)-5-methyl-1H-benzo[d]imidazol-2-yl)ethane-1,2-diamine trifluoroacetate], the EC50 in test [1] is less than 1 µM. For the same molecule, in test [2], the Ki is 0.5 to 1 µM.

The molecule `Cc1cc(CO)c2nc(N3CCNCC3)n(Cc3cc(C)c(F)c(C)c3)c2c1` [Example 280, [1-[(4-fluoro-3,5-dimethylphenyl)methyl]-6-methyl-2-piperazin-1-ylbenzimidazol-4-yl]methanol] showed an EC50 in test [1] of less than 1 µM. Moreover, the Ki in test [2] was 1 to 5 µM.

`Cc1cc(Cn2c(N3CCNCC3)nc3c(-c4ccccc4C#Cc4ccccc4)cc(Cl)cc32)cc(C)c1F` [Example 182, 6-chloro-1-(4-fluoro-3,5-dimethylbenzyl)-4-(2-(phenylethynyl)phenyl)-2-(piperazin-1-yl)-1H-benzo[d]imidazole trifluoroacetate]: the EC50 in test [1] was 1 to 5 µM. Also, the Ki in test [2] was more than 5 µM.

In general, EC50 refers to the concentration giving half of the maximal effect. High values mean lower potency in that assay, low ones higher potency in that assay. The Ki is the dissociation constant of the complex between target and ligand, obtained from inhibition or displacement.
